Data as given in PubChem BioAssay AID2060338 (Molecular Pharmacology Branch, DTP, NCI, 2025).

Test system: 556581-035-R-J1-PDC spheroids with HUVEC/MSC, viability
Test: Anticancer human tumor 556581-035-R-J1-PDC patient-derived ovarian carcinoma cell line growth inhibition [IpAb]
Settings: for IC50: curve of first compound; for viability, T/C: stronger effect = lower value
From the text: Combinatorial screen of targeted agents with ipatasertib and abemaciclib in multi-cell type tumor spheroids
A high-throughput screen of multi-cell type tumor spheroids was designed to identify active combinations of targeted small molecules and ipatasertib or abemaciclib. Complex spheroids include a stromal component modeled by human endothelial cells (HUVEC) and fibroblasts modeled by human mesenchymal stem cells (MSCs). The concentration ranges selected for each drug and investigational agent were based upon clinically achievable concentrations if the clinical Cmax of the agent was known.
Compounds. The drugs and investigational agents: ipatasertib (NSC767898), abemaciclib(NSC768073), selumetinib (NSC741078), trametinib (758246), adavosertib (NSC754352), everolimus (NSC733504), sapanisertib (NSC764658), vemurafenib (NSC761431), venetoclax (NSC766270), copanlisib (NSC809693), apelisib (NSC765974), palbociblib (NSC758247), vemurafenib (NSC761431), dabrafenib (NSC764134), ravoxertinib (NSC781343), BMS-387032 (NSC767048), sotorasib (NSC818433), talazoparib (NSC767125) and afursertib (NSC778305), were obtained from the National Cancer Institute (NCI) Developmental Therapeutics Program Chemical Repository. The FDA-approved anticancer drug set is available from the NCI Developmental Therapeutics Program. […] The stock solutions were prepared in dimethyl sulfoxide (DMSO, Sigma-Aldrich, St. Louis, MO, cat. D2650) at 800-fold the tested concentration and stored at -70 degrees C prior to their use. All drugs and investigational agents were tested over a range starting from a high concentration at or near the clinical Cmax and decreasing in half-log increments. If the clinical Cmax for an agent had not been determined, the highest concentration tested was 10 microM.
NCI60 Cell Culture. NCI60 cell lines were obtained from the NCI Developmental Therapeutics Program Tumor Repository. For each lot of cells, the Repository performed Applied Biosystems AmpFLSTR Identifiler testing with PCR amplification to confirm consistency with the published Identifier STR profile for each cell line. Cells were kept in continuous culture for no more than 20 passages. The optimal seeding densities for each of the cell lines at each time point assessed were determined prior to performing the concentration response studies. Briefly, the NCI60 human tumor lines were grown as monolayers in RPMI 1640 medium supplemented with 10% FBS and 2 mmol/L L-glutamine.
An additional 9 lines were from the NCI60 cell line panel including MDA-MB-231 breast carcinoma, MDA-MB-468 breast carcinoma, MCF7 breast carcinoma, Hs578T breast carcinoma, MALME-3M melanoma, SK-MEL-2 melanoma, SK-OV-3 ovarian carcinoma, DU-145 prostate carcinoma, PC-3 prostate carcinoma, all cell lines along with major genetic alterations are listed on Table 2. Pooled donor human umbilical vein endothelial cells (HUVEC, Lonza, cat. CC-2519) and human mesenchymal stem cells (hMSC, Lonza, cat. PT-2501) were purchased from Lonza (Walkersville, MD).
PDMR cell lines were grown in complete medium (DC medium): Dulbecco's modified Eagle's medium (DMEM)/F12 supplemented with 5% fetal bovine serum (FBS), 2 mM L-glutamine, 100 U/mL penicillin and 100 µg/ml streptomycin, 0.4 µg/ml hydrocortisone, 10 ng/ml epidermal growth factor (EGF) recombinant human protein, 24 µg/mL adenine, and 0.1 mg/mL primocin. During culture from frozen stock vials, PDMR cells were cultured in the same medium containing 10 µM Y-27632 (see Table 3). The PDCs were cultured in complete DMEM/F12 media without 10 microM Y-27632 dihydrochloride for at least two passages prior to the screen. The pooled donor HUVEC and hMSC were cultured in endothelial cell growth medium 2 (PromoCell, Heidelberg, Germany, cat. C-22011) and mesenchymal stem cell growth medium 2 (PromoCell, cat. C-28009), respectively. For all experiments, HUVEC and hMSC were used at passages </=5.
[…]

[1] = second compound 0.1 µM, first compound 0.0316 µM
[2] = second compound 0.1 µM, first compound 0.1 µM
[3] = second compound 0.1 µM, first compound 0.316 µM
[4] = second compound 0.1 µM, first compound 1 µM
[5] = second compound 0.316 µM, first compound 0.0316 µM
[6] = second compound 0.316 µM, first compound 0.1 µM
[7] = second compound 0.316 µM, first compound 0.316 µM
[8] = second compound 0.316 µM, first compound 1 µM
[9] = second compound 1 µM, first compound 0.0316 µM
[10] = second compound 1 µM, first compound 0.1 µM
[11] = second compound 1 µM, first compound 0.316 µM
[12] = second compound 1 µM, first compound 1 µM
[13] = second compound 3.16 µM, first compound 0.0316 µM
[14] = second compound 3.16 µM, first compound 0.1 µM
[15] = second compound 3.16 µM, first compound 0.316 µM
[16] = second compound 3.16 µM, first compound 1 µM
[17] = second compound 10 µM, first compound 0.0316 µM
[18] = second compound 10 µM, first compound 0.1 µM
[19] = second compound 10 µM, first compound 0.316 µM
[20] = second compound 10 µM, first compound 1 µM
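Also: spheroids exposed to compounds for 7 days before readout.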

Compound | IC50 (second compound 0.1 µM) [nM] | IC50 (second compound 0.316 µM) [nM] | IC50 (second compound 1 µM) [nM] | IC50 (second compound 3.16 µM) [nM] | IC50 (second compound 10 µM) [nM] | viability, T/C [1] [%] | viability, T/C [2] [%] | viability, T/C [3] [%] | viability, T/C [4] [%] | viability, T/C [5] [%] | viability, T/C [6] [%] | viability, T/C [7] [%] | viability, T/C [8] [%] | viability, T/C [9] [%] | viability, T/C [10] [%] | viability, T/C [11] [%] | viability, T/C [12] [%] | viability, T/C [13] [%] | viability, T/C [14] [%] | viability, T/C [15] [%] | further results
COc1c(OCCCN2CCOCC2)ccc2c3n(c(=NC(=O)c4cnc(N)nc4)nc12)CCN3 + CC(C)NCC(C(=O)N1CCN(c2ncnc3c2C(C)CC3O)CC1)c1ccc(Cl)cc1 | 25.4 | 31.6 | 19 | 13.9 | 3.33 | 45.6 | 36.1 | 16.5 | 3.99 | 55.1 | 31.5 | 15.6 | 2.82 | 42 | 36.3 | 14.6 | 2.64 | 55.3 | 39.3 | 11.8 | viability, T/C (second compound 0.1 µM, first compound 0.00316 µM): 73.8%; viability, T/C (second compound 0.1 µM, first compound 0.01 µM): 61.1%; viability, T/C (second compound 0.316 µM, first compound 0.00316 µM): 91.6%; viability, T/C (second compound 0.316 µM, first compound 0.01 µM): 62.8%; viability, T/C (second compound 1 µM, first compound 0.00316 µM): 64.1%; viability, T/C (second compound 1 µM, first compound 0.01 µM): 57%; viability, T/C (second compound 3.16 µM, first compound 0.00316 µM): 50.2%; viability, T/C (second compound 3.16 µM, first compound 0.01 µM): 45.2%; viability, T/C [16]: 5.41%; viability, T/C (second compound 10 µM, first compound 0.00316 µM): 52%; viability, T/C (second compound 10 µM, first compound 0.01 µM): 42.8%; viability, T/C [17]: 38.5%; viability, T/C [18]: 33.6%; viability, T/C [19]: 14.7%; viability, T/C [20]: 5.1%
Cc1nc(NC(=O)N2CCCC2C(N)=O)sc1-c1ccnc(C(C)(C)C(F)(F)F)c1 (stereo not given) + CC(C)NCC(C(=O)N1CCN(c2ncnc3c2C(C)CC3O)CC1)c1ccc(Cl)cc1 | 504 | 206 | 48.4 | < 31.6 | < 31.6 | 81.8 | 68.6 | 56.8 | 38.8 | 62 | 57.6 | 40.3 | 39.2 | 48.5 | 53.8 | 39.8 | 36.2 | 41.8 | 43.2 | 43.5 | viability, T/C (second compound 0.1 µM, first compound 3.16 µM): 31%; viability, T/C (second compound 0.1 µM, first compound 10 µM): 11.3%; viability, T/C (second compound 0.316 µM, first compound 3.16 µM): 33%; viability, T/C (second compound 0.316 µM, first compound 10 µM): 11.3%; viability, T/C (second compound 1 µM, first compound 3.16 µM): 27.4%; viability, T/C (second compound 1 µM, first compound 10 µM): 16.2%; viability, T/C [16]: 35.6%; viability, T/C (second compound 3.16 µM, first compound 3.16 µM): 24.6%; viability, T/C (second compound 3.16 µM, first compound 10 µM): 10.7%; viability, T/C [17]: 38.6%; viability, T/C [18]: 42.4%; viability, T/C [19]: 35.7%; viability, T/C [20]: 27.2%; viability, T/C (second compound 10 µM, first compound 3.16 µM): 22.9%; viability, T/C (second compound 10 µM, first compound 10 µM): 4.11%
